Key:
[1] = biological target: Protein kinase C theta type (Homo sapiens) (UniProt Q04759); assay: Inhibition of wild-type human partial length PRKCQ (L350 to S706 residues) expressed in bacterial expression system at 1 uM by Kinomescan method relative to control
[2] = biological target: Cyclin-dependent kinase 8 (Homo sapiens) (UniProt P49336); assay: Inhibition of wild-type human partial length CDK8 (M1 to T360 residues) expressed in bacterial expression system at 1 uM by Kinomescan method relative to control
[3] = biological target: Macrophage colony-stimulating factor 1 receptor (Homo sapiens) (UniProt P07333); assay: Inhibition of wild-type human partial length CSF1R (I564 to S939 residues) expressed in bacterial expression system at 1 uM by Kinomescan method relative to control
[4] = biological target: Ribosomal protein S6 kinase alpha-1 (Homo sapiens) (UniProt Q15418); assay: Inhibition of wild-type human partial length C-terminal RSK1 kinase domain 2 (P360 to L681 residues) expressed in bacterial expression system at 1 uM by Kinomescan method relative to control
[5] = biological target: Fibroblast growth factor receptor 1 (Homo sapiens) (UniProt P11362); assay: Inhibition of wild-type human partial length FGFR1 (P357 to V669 residues) expressed in bacterial expression system at 1 uM by Kinomescan method relative to control
[6] = Oral bioavailability in Sprague-Dawley rat using amorphous solid form of compound; type: ADME, organism-based; conditions: in vivo
[7] = biological target: Atypical kinase COQ8B, mitochondrial (Homo sapiens) (UniProt Q96D53); assay: Inhibition of wild-type human full length ADCK4 (M1 to S544 residues) expressed in bacterial expression system at 1 uM by Kinomescan method relative to control
[8] = biological target: CDK4/Cyclin D3 (Homo sapiens) (UniProt P11802+P30281); assay: Inhibition of wild-type human full length CDK4/cyclinD3 (M1 to E303 residues) expressed in mammalian expression system at 1 uM by Kinomescan method relative to control
[9] = biological target: Receptor tyrosine-protein kinase erbB-2 (Homo sapiens) (UniProt P04626); assay: Inhibition of wild-type human partial length ERBB2 (K646 to V1225 residues) expressed in mammalian expression system at 1 uM by Kinomescan method relative to control
[10] = biological target: Serine/threonine-protein kinase Nek6 (Homo sapiens) (UniProt Q9HC98); assay: Inhibition of wild-type human full length NEK6 (M8 to T313 residues) expressed in bacterial expression system at 1 uM by Kinomescan method relative to control
[11] = biological target: Casein kinase I isoform alpha (Homo sapiens) (UniProt P48729); assay: Inhibition of wild-type human partial length CSNK1A1 (M1 to L450 residues) expressed in mammalian expression system at 1 uM by Kinomescan method relative to control
[12] = biological target: Serine/threonine-protein kinase PRP4 homolog (Homo sapiens) (UniProt Q13523); assay: Inhibition of wild-type human partial length PRP4 (D657 to I1007 residues) expressed in bacterial expression system at 1 uM by Kinomescan method relative to control
[13] = biological target: Mitogen-activated protein kinase kinase kinase kinase 5 (Homo sapiens) (UniProt Q9Y4K4); assay: Inhibition of wild-type human partial length MAP4K5 (M1 to P297 residues) expressed in bacterial expression system at 1 uM by Kinomescan method relative to control
[14] = system: Phosphatidylinositol 4,5-bisphosphate 3-kinase catalytic subunit alpha isoform (Homo sapiens), P42336 [H1047Y]; assay: Inhibition of human partial length PIK3CA H1047Y mutant (R108 to N1068 residues) expressed in mammalian expression system at 1 uM by Kinomescan method relative to control
[15] = biological target: Eukaryotic translation initiation factor 2-alpha kinase 1 (Homo sapiens) (UniProt Q9BQI3); assay: Inhibition of wild-type human partial length EIF2AK1 (Q147 to E603 residues) expressed in mammalian expression system at 1 uM by Kinomescan method relative to control
[16] = biological target: Calcium/calmodulin-dependent protein kinase kinase 2 (Homo sapiens) (UniProt Q96RR4); assay: Inhibition of wild-type human partial length CAMKK2 (D65 to V471 residues) expressed in bacterial expression system at 10 uM by Kinomescan method relative to control
[17] = biological target: Cyclin-dependent kinase 5 (Homo sapiens) (UniProt Q00535); assay: Inhibition of wild-type human full length CDK5 (M1 to P292 residues) expressed in bacterial expression system at 10 uM by Kinomescan method relative to control
[18] = biological target: Non-receptor tyrosine-protein kinase TNK1 (Homo sapiens) (UniProt Q13470); assay: Inhibition of wild-type human full length TNK1 (M1 to P661 residues) expressed in bacterial expression system at 10 uM by Kinomescan method relative to control
[19] = biological target: Tyrosine-protein kinase Tec (Homo sapiens) (UniProt P42680); assay: Inhibition of wild-type human partial length TEC (L341 to D620 residues) expressed in bacterial expression system at 10 uM by Kinomescan method relative to control
[20] = biological target: Serine/threonine-protein kinase Nek3 (Homo sapiens) (UniProt P51956); assay: Inhibition of wild-type human full length NEK3 (M1 to R506 residues) expressed in mammalian expression system at 10 uM by Kinomescan method relative to control
[21] = biological target: LIM domain kinase 1 (Homo sapiens) (UniProt P53667); assay: Inhibition of wild-type human full length LIMK1 (M1 to D647 residues) expressed in bacterial expression system at 10 uM by Kinomescan method relative to control
[22] = system: Phosphatidylinositol 4,5-bisphosphate 3-kinase catalytic subunit alpha isoform (Homo sapiens), P42336 [E545K]; assay: Inhibition of human partial length PIK3CA E545K mutant (R108 to N1068 residues) expressed in mammalian expression system at 10 uM by Kinomescan method relative to control
[23] = biological target: Serine/threonine-protein kinase MARK1 (Homo sapiens) (UniProt Q9P0L2); assay: Inhibition of wild-type human partial length MARK1 (Q30 to T341 residues) expressed in bacterial expression system at 10 uM by Kinomescan method relative to control
[24] = biological target: Phosphatidylinositol 4-phosphate 5-kinase type-1 gamma (Homo sapiens) (UniProt O60331); assay: Inhibition of wild-type human partial length PIP5K1C (M1 to T668 residues) expressed in mammalian expression system at 10 uM by Kinomescan method relative to control
[25] = biological target: MAP kinase-interacting serine/threonine-protein kinase 2 (Homo sapiens) (UniProt Q9HBH9); assay: Inhibition of wild-type human partial length MKNK2 (G63 to S388 residues) expressed in mammalian expression system at 10 uM by Kinomescan method relative to control
[26] = biological target: ALK tyrosine kinase receptor (Homo sapiens) (UniProt Q9UM73); assay: Inhibition of wild-type human partial length ALK (I1088 to E1409 residues) expressed in mammalian expression system at 10 uM by Kinomescan method relative to control
[27] = biological target: Rhodopsin kinase GRK1 (Homo sapiens) (UniProt Q15835); assay: Inhibition of wild-type human full length GRK1 (M1 to S563 residues) expressed in mammalian expression system at 10 uM by Kinomescan method relative to control

Sequence of Non-receptor tyrosine-protein kinase TNK1 (Homo sapiens) (Q13470 whole entry, the tested form may be a part): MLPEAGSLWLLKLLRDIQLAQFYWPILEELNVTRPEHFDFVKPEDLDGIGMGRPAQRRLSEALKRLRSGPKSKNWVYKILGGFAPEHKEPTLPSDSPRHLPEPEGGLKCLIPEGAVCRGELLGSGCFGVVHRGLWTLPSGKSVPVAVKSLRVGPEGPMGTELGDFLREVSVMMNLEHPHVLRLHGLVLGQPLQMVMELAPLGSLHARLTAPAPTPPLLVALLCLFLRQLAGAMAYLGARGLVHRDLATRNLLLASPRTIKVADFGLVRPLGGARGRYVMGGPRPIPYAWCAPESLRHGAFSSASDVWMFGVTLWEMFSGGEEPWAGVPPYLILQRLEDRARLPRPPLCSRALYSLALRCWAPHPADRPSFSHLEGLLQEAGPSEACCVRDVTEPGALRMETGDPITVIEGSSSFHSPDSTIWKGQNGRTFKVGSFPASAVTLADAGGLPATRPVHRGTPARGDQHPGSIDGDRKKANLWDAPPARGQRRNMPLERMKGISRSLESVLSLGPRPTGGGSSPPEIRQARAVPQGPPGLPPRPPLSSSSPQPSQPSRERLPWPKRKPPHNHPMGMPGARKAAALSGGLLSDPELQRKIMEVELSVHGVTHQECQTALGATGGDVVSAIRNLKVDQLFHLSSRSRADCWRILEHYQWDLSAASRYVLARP
Sequence of Ribosomal protein S6 kinase alpha-1 (Homo sapiens) (Q15418 whole entry, the tested form may be a part): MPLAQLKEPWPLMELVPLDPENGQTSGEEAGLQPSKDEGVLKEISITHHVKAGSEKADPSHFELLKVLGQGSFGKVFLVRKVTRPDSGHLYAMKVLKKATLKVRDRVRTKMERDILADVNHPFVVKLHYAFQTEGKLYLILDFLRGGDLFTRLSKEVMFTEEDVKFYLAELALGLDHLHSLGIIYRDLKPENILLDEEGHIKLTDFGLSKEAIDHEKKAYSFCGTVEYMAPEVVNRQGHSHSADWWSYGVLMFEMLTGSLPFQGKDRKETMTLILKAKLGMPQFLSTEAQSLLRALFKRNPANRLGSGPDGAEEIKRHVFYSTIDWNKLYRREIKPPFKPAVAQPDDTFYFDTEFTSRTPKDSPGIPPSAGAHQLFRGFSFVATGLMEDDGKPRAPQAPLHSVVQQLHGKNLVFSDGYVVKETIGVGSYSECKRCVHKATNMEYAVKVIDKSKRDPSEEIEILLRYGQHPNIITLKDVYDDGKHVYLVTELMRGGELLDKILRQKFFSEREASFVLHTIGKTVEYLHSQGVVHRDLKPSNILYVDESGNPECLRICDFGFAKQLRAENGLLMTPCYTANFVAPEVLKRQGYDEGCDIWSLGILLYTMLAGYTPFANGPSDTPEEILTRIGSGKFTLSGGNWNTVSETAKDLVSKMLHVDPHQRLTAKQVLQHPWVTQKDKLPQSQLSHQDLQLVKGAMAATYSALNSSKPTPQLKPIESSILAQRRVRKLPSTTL
Sequence of Mitogen-activated protein kinase kinase kinase kinase 5 (Homo sapiens) (Q9Y4K4 whole entry, looked up, the tested form may be a part, canonical isoform): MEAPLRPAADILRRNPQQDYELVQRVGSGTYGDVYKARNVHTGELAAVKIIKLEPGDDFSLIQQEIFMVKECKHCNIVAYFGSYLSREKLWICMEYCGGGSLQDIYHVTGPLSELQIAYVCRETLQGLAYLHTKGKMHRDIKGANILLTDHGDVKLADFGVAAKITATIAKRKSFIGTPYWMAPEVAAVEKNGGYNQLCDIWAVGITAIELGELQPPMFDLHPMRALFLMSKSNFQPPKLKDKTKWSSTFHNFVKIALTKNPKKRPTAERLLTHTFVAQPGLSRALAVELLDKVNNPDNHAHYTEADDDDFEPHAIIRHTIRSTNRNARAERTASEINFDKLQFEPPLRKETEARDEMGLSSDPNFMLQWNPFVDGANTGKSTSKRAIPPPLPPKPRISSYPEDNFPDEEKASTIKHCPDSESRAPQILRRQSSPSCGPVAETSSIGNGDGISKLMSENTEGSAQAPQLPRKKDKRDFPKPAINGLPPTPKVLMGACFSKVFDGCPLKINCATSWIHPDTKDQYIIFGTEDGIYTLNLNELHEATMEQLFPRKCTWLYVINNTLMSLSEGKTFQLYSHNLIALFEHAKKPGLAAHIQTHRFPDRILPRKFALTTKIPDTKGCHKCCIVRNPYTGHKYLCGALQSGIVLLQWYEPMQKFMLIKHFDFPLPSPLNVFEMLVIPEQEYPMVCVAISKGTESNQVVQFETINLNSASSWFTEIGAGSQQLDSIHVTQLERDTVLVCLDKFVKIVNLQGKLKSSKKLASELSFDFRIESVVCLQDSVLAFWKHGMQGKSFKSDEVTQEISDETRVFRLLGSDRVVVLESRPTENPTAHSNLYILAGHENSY
Sequence of LIM domain kinase 1 (Homo sapiens) (P53667 whole entry, looked up, the tested form may be a part, canonical isoform): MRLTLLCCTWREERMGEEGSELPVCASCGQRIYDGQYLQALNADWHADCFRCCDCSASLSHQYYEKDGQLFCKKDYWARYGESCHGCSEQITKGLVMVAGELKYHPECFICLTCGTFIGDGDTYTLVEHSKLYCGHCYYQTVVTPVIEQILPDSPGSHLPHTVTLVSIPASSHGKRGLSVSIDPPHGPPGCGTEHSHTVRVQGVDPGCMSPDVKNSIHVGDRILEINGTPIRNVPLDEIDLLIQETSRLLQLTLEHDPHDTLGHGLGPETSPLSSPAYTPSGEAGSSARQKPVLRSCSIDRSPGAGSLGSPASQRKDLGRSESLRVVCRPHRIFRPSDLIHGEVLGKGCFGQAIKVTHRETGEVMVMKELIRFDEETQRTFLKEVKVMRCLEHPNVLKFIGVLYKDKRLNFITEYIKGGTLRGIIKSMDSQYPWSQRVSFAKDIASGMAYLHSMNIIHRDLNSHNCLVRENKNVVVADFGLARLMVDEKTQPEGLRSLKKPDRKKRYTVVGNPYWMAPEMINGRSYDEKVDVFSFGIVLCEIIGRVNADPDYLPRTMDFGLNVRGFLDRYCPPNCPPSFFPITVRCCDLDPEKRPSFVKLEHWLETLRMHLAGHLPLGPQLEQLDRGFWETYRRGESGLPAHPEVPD
Sequence of Receptor tyrosine-protein kinase erbB-2 (Homo sapiens) (P04626 whole entry, the tested form may be a part): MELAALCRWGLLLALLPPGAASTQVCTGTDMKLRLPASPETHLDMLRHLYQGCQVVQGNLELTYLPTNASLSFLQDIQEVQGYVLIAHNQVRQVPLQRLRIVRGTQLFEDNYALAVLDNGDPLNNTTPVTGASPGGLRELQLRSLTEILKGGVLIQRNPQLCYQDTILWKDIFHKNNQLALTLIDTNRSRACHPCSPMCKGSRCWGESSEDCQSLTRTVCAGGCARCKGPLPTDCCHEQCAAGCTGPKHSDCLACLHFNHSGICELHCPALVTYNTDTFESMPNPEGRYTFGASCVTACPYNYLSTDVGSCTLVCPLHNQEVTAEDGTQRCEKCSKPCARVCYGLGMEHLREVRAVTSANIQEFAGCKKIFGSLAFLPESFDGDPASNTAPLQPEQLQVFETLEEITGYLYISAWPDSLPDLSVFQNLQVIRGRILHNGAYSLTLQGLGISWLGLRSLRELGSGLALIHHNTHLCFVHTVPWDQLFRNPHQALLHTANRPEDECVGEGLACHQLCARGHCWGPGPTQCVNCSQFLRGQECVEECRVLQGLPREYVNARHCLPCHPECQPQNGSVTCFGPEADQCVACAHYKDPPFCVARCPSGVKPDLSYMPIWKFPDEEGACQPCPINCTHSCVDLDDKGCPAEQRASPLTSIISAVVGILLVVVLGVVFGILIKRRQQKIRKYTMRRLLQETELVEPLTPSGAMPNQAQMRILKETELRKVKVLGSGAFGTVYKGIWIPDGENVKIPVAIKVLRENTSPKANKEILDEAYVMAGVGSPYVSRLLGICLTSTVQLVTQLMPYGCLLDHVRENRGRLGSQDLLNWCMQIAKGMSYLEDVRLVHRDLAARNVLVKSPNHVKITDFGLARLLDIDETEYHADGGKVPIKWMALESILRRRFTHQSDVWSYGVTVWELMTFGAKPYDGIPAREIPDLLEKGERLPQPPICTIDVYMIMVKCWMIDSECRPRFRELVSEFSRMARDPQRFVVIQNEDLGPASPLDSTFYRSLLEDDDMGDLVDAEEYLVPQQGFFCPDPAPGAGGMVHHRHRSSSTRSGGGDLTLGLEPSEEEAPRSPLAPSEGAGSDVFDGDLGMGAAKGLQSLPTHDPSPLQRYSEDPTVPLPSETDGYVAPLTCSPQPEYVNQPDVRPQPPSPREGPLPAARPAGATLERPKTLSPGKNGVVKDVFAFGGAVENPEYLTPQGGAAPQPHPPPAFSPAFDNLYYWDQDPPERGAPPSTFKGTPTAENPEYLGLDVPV
Sequence of Cyclin-dependent kinase 8 (Homo sapiens) (P49336 whole entry, the tested form may be a part): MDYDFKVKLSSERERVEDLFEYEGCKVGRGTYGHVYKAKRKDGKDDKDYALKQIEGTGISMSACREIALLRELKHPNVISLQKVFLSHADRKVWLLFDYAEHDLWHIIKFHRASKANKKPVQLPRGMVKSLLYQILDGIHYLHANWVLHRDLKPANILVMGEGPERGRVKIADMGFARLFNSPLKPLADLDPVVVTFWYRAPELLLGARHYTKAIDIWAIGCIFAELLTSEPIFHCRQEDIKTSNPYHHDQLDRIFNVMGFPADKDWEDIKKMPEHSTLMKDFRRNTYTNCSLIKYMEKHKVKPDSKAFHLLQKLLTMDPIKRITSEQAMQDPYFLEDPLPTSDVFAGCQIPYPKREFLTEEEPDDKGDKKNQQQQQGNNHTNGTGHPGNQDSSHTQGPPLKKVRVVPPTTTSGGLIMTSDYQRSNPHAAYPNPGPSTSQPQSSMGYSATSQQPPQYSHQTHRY
Sequence of Serine/threonine-protein kinase Nek6 (Homo sapiens) (Q9HC98 whole entry, the tested form may be a part, canonical isoform): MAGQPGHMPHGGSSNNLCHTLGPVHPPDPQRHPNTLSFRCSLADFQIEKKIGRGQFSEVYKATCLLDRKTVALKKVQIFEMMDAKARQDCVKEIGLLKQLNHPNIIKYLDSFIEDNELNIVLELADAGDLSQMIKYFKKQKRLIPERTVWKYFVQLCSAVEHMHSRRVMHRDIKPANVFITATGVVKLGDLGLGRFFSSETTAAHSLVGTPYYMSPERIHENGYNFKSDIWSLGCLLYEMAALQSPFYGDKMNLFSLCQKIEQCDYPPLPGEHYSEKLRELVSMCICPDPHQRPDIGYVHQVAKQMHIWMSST

O=C(Nc1cccc([C@@H]2CN(c3ncnc4[nH]ccc34)CCN2CCO)c1)Nc1c(F)cccc1N1CCCC1
inhibition [1]: 95% | inhibition [2]: 84% | inhibition [3]: 67% | inhibition [4]: 88% | inhibition [5]: 46% | bioavailability [6]: 12% | inhibition [7]: 92% | inhibition [8]: 100% | inhibition [9]: 83% | inhibition [10]: 86% | inhibition [11]: 81% | inhibition [12]: 92% | inhibition [13]: 91% | inhibition [14]: 53% | inhibition [15]: 100%

O=C(Nc1cccc([C@H]2CCCN(c3ncnc4[nH]ccc34)C2)c1)Nc1ccccc1N1CCCC1
inhibition [16]: 92% | inhibition [17]: 92% | inhibition [18]: 65% | inhibition [19]: 73% | inhibition [20]: 59% | inhibition [21]: 97% | inhibition [22]: 64% | inhibition [23]: 81% | inhibition [24]: 59% | inhibition [25]: 34% | inhibition [26]: 80% | inhibition [27]: 63%

From ChEMBL document CHEMBL4387741, “Optimization of novel reversible Bruton's tyrosine kinase inhibitors identified using Tethering-fragment-based screens” (Bioorg Med Chem, 2019)
